Experimental data: patent US7968543B2 (priority 2007, dated 2011)
“Also recorded” adds a separate entry of the source. Read-outs that look alike come from different tables or passages of the source.

Legend:
[1] = system: relapsed or refractory acute myeloid leukemia; conditions: for Efficacy: Human, by comparison with efficacious exposure in mice
From the text: (§1) The study was open labeled and designed to determine the safety, tolerability, dose limiting toxicity (DLT), pharmacokinetics and pharmacodynamics of escalating doses. […] If two or more patients in the expanded cohort experiences first course DLT, no further patients will enroll at that dose and the next lower dose level will be declared the maximum tolerated dose (MTD). Primary endpoints for the study are safety, tolerability, dose limiting toxicity (DLT), and PK. Secondary endpoint is PD.

[2] = Phase I clinical trial, safety and tolerability
From the text: as §1

RS4-11 cell line = conditions: read-out: IC50 (nM), Proliferation, RS 4, 48 hour incubation
clinical = conditions: human, in vivo; for AUC(0-t): SS AUC0-24 (ng * h/mL)
[3] = mouse, in vivo, 1 mg/kg
[4] = Ninety-day toxicity study in rats; type: in vivo, rat
Procedure: (§2) For rats, the compound was administered at a dose of 1, 3, or 10 mg/kg/day.

[5] = in vivo
in vivo = conditions: mouse, plasma, oral, 1 mg/kg
[6] = Ninety-day toxicity study in dogs; type: in vivo, dog
Procedure: as §2
For dogs, the compound was administered at a dose of 1, 5, or 15 mg/kg/day.

[7] = Mouse oral pharmacokinetics / exposure
[8] = system: subcutaneous MV4-11 tumors
Procedure: Xenograft was initiated from MV4-11 FLT3-dependent human leukemia cells cultured in Iscove's Modified Dulbecco's medium supplemented with 10% heat-inactivated fetal bovine serum, 100 units/mL penicillin G, 100 μg/mL streptomycin sulfate, 0.25 μg/mL amphotericin B, 2 mM glutamine, 0.075% sodium bicarbonate, and 25 μg/mL gentamicin. Tumor cells were maintained in humidified atmosphere of 95% air and 5% CO2 at 37° C. The cells were harvested during logarithmic phase growth and resuspended at a concentration of 5×10^7 cells/mL in 50% Matrigel matrix (BD Biosciences) and 50% PBS. MV4-11 cells (1×10^7) were implanted subcutaneously into the right flank of each test mouse and the growth of tumors was monitored. Twelve days later, on Day 1 of the study, mice were placed in eight groups each consisting of ten mice with individual tumor sizes of 126 to 221 mm^3 and group mean tumor size of 174 mm^3, tumor volume calculated as a product of width×width×length in mm of an MV4-11 tumor. […] Each dose of drug was given in a volume of 0.2 mL per 20 g of body weight (10 mL/kg) and was adjusted for the body weight of the animal. Each animal was sacrificed when its tumor reached the predetermined endpoint size of 1,000 mm^3 or on the last day of the study (Day 59), whichever came first.
In a follow-on study at the 10 mg/kg oral dose, tumor size was monitored for an additional 60 days after dosing was discontinued.

[9] = Phase I clinical trial, human oral pharmacokinetics; conditions: in vivo, 12 mg
[10] = follow-on study, 10 mg/kg oral, monitored 60 days after dosing discontinued, ten animals

## CC(C)(C)c1cc(NC(=O)Nc2ccc(-c3cn4c(n3)sc3cc(OCCN5CCOCC5)ccc34)cc2)no1 [compound of Formula I, N-(5-tert-butyl-isoxazol-3-yl)-N′-{4-[7-(2-morpholin-4-yl-ethoxy)imidazo[2,1-b][1,3]benzothiazol-2-yl]phenyl}urea]
[1]; Cohort 2, 18 mg, individual patients
  hematological improvement: major hematological improvement; also recorded: minor hematological improvement
[1]; 12 mg
  Efficacy: Possible
[1]; 18 mg
  Efficacy: Possible
[1]; cohort 2 (18 mg)
  patients with hematological improvement: three
[1]; first 45 pts
  patients with complete response (CR): Four
[1]; human, in vivo
  responders that were WT: five
[1]; intermittent dosing
  non-responding patients with ITD mutations with initial rapid clearing of peripheral blasts: Six of the 9
[2]; Cohorts 1 and 2, one unrelated fungal infection, one congestive heart failure possibly drug related
  deaths: Two
[2]; human, in vivo
  Grade 1 (mild) drug-related adverse events: instance of cough: one
  Grade 1 (mild) drug-related adverse events: instance of decreased appetite: one
  Grade 1 (mild) drug-related adverse events: instance of disgeusia: one
  Grade 1 (mild) drug-related adverse events: instances of abdominal distension/constipation: two
  Grade 1 (mild) drug-related adverse events: instances of nausea/vomiting: two
  dose limiting toxicity (DLT): reported as a DLT
  grade of other possibly drug-related AEs: ≤ 2 grade
  hematological toxicity: no hematological toxicity was observed
[2]; up to 450 mg/day, either schedule
  MTD: has not yet been observed
RS4-11 cell line
  IC50: 1000 nM
clinical; 12 mg
  half-life: ~67.2 h
  AUC(0-t): 757 ng·h/mL
clinical; 18 mg
  half-life: 24 to 67.2 h
  AUC(0-t): 1380 ng·h/mL
[3]
  ΔT: 6 h
[4]; high dose (10 mg/kg/day)
  elevations in liver function tests (LFTS): 2- to 3 folds
[4]; high dose (very mild anemia)
  neutropenia: Sustained neutropenia
[4]; low and middle doses (1, 3 mg/kg/day), 90 days
  clinical signs: No significant clinical signs were observed
[4]; rat, in vivo, 10 mg/kg/day, high dose, read-out: AUC at which LFT elevations were produced
  AUC at 90 days: ≥ 30 µM·h
[4]; rat, in vivo, read-out: terminal half-life (converted)
  half-life: 5.7 h
[5]; human
  duration of steady state exposure: 24 h
  plasma exposure versus dose: dose proportional
[5]; human, po, 12 mg
  bioavailability in humans: good bioavailability
[5]; 18 mg
  human bioavailability: good human bioavailability
In vivo
  AUC: ~3.2 µM·h
  AUC(0-t): 1790 ng·h/mL
[6]; dog, in vivo, 15 mg/kg/day, high dose, read-out: AUC at which LFT elevations were produced
  AUC: ≥ 30 µM·h
[6]; dog, in vivo, read-out: terminal half-life (converted)
  half-life: 5.9 h
[6]; high dose
  weight gain suppression: 10%
[6]; high dose (15 mg/kg/day)
  elevations in liver function tests (LFTS): 3 to 6 folds
[6]; high dose (very mild anemia)
  neutropenia: Sustained neutropenia
[6]; low and middle doses (1, 5 mg/kg/day), 90 days
  clinical signs: No significant clinical signs were observed
[7]; Mouse, 1 mg/kg
  SS Cp: 143 ng/mL
[7]; mice, efficacious dose 1 mg/kg
  efficacious plasma levels over the MV4;11 IC50: about 800 fold
[7]; mouse
  duration of steady state exposure: 6 h
[8]; 1 mg/kg (3 mg/m^2, p.o., QD)
  tumor response: tumor growth inhibition
[8]; 3 mg/kg p.o. QD for 28 days
  tumor response: tumor regression
[8]; 10 mg/kg p.o. QD for 28 days
  tumor response: tumor regression
[8]; Mouse, 1 mg/kg
  Efficacy: Yes
[8]; [10]
  complete responses: eight
  partial responses: two
[9]
  Cmax: 11.2 ng/mL
